Source: the NIST ThermoML archive (doi:10.1016/j.jct.2018.12.006)

Conditions: 101.33 kPa, Crystal; for molar entropy: Small (less than 1 g) adiabatic calorimetry; for mass density: X-ray diffraction

C[N+](C)(C)C[C@H](O)CC(=O)[O-] [(R)-3-hydroxy-4-(trimethylammonio)butanoate]
Conditions | mass density [kg/m3] | molar entropy [J/K/mol]
5 K | – | 0.0967
10 K | – | 0.77
15 K | – | 2.46
20 K | – | 5.34
25 K | – | 8.973
30 K | – | 13
35 K | – | 17.28
40 K | – | 21.73
45 K | – | 26.33
50 K | – | 31.04
60 K | – | 40.65
70 K | – | 50.3
80 K | – | 59.86
90 K | – | 69.27
100 K | – | 78.52
110 K | – | 87.63
120 K | – | 96.63
130 K | – | 105.5
140 K | – | 114.3
150 K | 1256 | 122.9
160 K | – | 131.4
170 K | – | 139.9
175 K | 1250 | –
180 K | – | 148.2
190 K | – | 156.4
200 K | 1253 | 164.5
210 K | – | 172.5
220 K | – | 180.3
225 K | 1247 | –
230 K | – | 188.1
240 K | – | 195.9
250 K | 1247 | 203.6
260 K | – | 211.2
270 K | – | 218.8
273.15 K | – | 221.2
275 K | 1250 | –
280 K | – | 226.4
290 K | – | 233.9
298.15 K | – | 240.1
300 K | 1245 | 241.5
310 K | – | 249
320 K | – | 256.5
325 K | 1236 | –
330 K | – | 264
340 K | – | 271.5
350 K | 1239 | 279
375 K | 1242 | –
400 K | 1236 | –
425 K | 1236 | –
